Source: US12077503B2, “Substituted cyclic amides and their use as herbicides” (FMC CORPORATION, priority 2015, dated 2024)

Legend:
Type in all cases: in vivo
[1] = tested on: barnyardgrass (Echinochloa crus-galli); assay: Test G Post-Emergence Protocol; settings: Echinochloa crus-galli, post-emergence, 312 h; for pest or weed control at 15.625 g/ha: 15.625 g ai/ha, evaluated after 13 days (100=total damage to plant; 0=no damage to plant), read-out: Barnyardgrass damage rating; for pest or weed control at 62.5 g/ha: 62.5 g ai/ha, read-out: Barnyardgrass damage rating (100=total damage to plant; 0=no damage to plant); for pest or weed control at 62.5 g/ha / pest or weed control at 250 g/ha: evaluated after 13 days; for pest or weed control at 250 g/ha: 250 g ai/ha, read-out: damage to plant, Barnyardgrass (100=total damage to plant; 0=no damage to plant)
In short: (§1)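 Sow in soil; grow 8 d (24/16 °C, 14 h light, 65% humidity); spray 15.625/62.5/250 g/ha in acetone:water 50:50 + 0.5% Tween 20; grow on, water twice daily; score damage 0–100 at 13 d.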

[2] = tested on: velvetleaf (Abutilon theophrasti); assay: Test G Post-Emergence Protocol; settings: Abutilon theophrasti, post-emergence, 312 h; for pest or weed control at 15.625 g/ha: 15.625 g ai/ha, evaluated after 13 days (100=total damage to plant; 0=no damage to plant), read-out: Velvetleaf damage rating; for pest or weed control at 62.5 g/ha: 62.5 g ai/ha, read-out: Velvetleaf damage rating (100=total damage to plant; 0=no damage to plant); for pest or weed control at 62.5 g/ha / pest or weed control at 250 g/ha: evaluated after 13 days; for pest or weed control at 250 g/ha: 250 g ai/ha, read-out: damage to plant, Velvetleaf (100=total damage to plant; 0=no damage to plant)
In short: as §1

corn (Zea mays) [3] = assay: Test G Post-Emergence Protocol; settings: Zea mays, post-emergence, 312 h; for plant injury at 15.625 g/ha: 15.625 g ai/ha, evaluated after 13 days (100=total damage to plant; 0=no damage to plant), read-out: Corn damage rating; for plant injury at 62.5 g/ha: 62.5 g ai/ha, read-out: Corn damage rating (100=total damage to plant; 0=no damage to plant); for plant injury at 62.5 g/ha / plant injury at 250 g/ha: evaluated after 13 days; for plant injury at 250 g/ha: 250 g ai/ha, read-out: damage to plant, Corn (100=total damage to plant; 0=no damage to plant)
In short: as §1

[4] = tested on: ivy-leaved morning glory (Ipomoea hederacea); assay: Test G Post-Emergence Protocol; settings: Ipomoea, post-emergence, 312 h; for pest or weed control at 15.625 g/ha: 15.625 g ai/ha, evaluated after 13 days (100=total damage to plant; 0=no damage to plant), read-out: Morningglory, Ivy-leaved damage rating; for pest or weed control at 62.5 g/ha: 62.5 g ai/ha, read-out: Morningglory, Ivy-leaved damage rating (100=total damage to plant; 0=no damage to plant); for pest or weed control at 62.5 g/ha / pest or weed control at 250 g/ha: evaluated after 13 days; for pest or weed control at 250 g/ha: 250 g ai/ha, read-out: damage to plant, Morningglory, Ivy-leaved (100=total damage to plant; 0=no damage to plant)
In short: as §1

[5] = tested on: redroot pigweed (Amaranthus retroflexus); assay: Test G Post-Emergence Protocol; settings: Amaranthus retroflexus, post-emergence, 312 h; for pest or weed control at 15.625 g/ha: 15.625 g ai/ha, evaluated after 13 days (100=total damage to plant; 0=no damage to plant), read-out: Pigweed, Redroot damage rating; for pest or weed control at 62.5 g/ha: 62.5 g ai/ha, read-out: Pigweed, Redroot damage rating (100=total damage to plant; 0=no damage to plant); for pest or weed control at 62.5 g/ha / pest or weed control at 250 g/ha: evaluated after 13 days; for pest or weed control at 250 g/ha: 250 g ai/ha, read-out: damage to plant, Pigweed, Redroot (100=total damage to plant; 0=no damage to plant)
In short: as §1

[6] = tested on: giant foxtail (Setaria faberi); assay: Test G Post-Emergence Protocol; settings: Setaria faberi, post-emergence, 312 h; for pest or weed control at 15.625 g/ha: 15.625 g ai/ha, evaluated after 13 days (100=total damage to plant; 0=no damage to plant), read-out: Foxtail, Giant damage rating; for pest or weed control at 62.5 g/ha: 62.5 g ai/ha, read-out: Foxtail, Giant damage rating (100=total damage to plant; 0=no damage to plant); for pest or weed control at 62.5 g/ha / pest or weed control at 250 g/ha: evaluated after 13 days; for pest or weed control at 250 g/ha: 250 g ai/ha, read-out: damage to plant, Foxtail, Giant (100=total damage to plant; 0=no damage to plant)
In short: as §1

[7] = tested on: barnyardgrass (Echinochloa crus-galli); assay: Test G Pre-Emergence Protocol; settings: Echinochloa crus-galli, pre-emergence, 312 h, evaluated after 13 days; for pest or weed control at 15.625 g/ha: 15.625 g ai/ha, read-out: Barnyard grass damage rating (100=total damage to plant; 0=no damage to plant); for pest or weed control at 62.5 g/ha: 62.5 g ai/ha, 100=total damage to plant, 0=no damage to plant, read-out: plant damage rating, Barnyardgrass; for pest or weed control at 250 g/ha: 250 g ai/ha, read-out: Barnyardgrass damage rating (100=total damage to plant; 0=no damage to plant)
In short: (§2)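 One day after sowing, pots are treated with a spray of test compound formulated in acetone/water 50:50 plus 0.5% Tween 20, giving 15.625, 62.5 or 250 g/ha. Evaluation on a 0–100 damage scale follows 13 days of glasshouse growth.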

[8] = tested on: velvetleaf (Abutilon theophrasti); assay: Test G Pre-Emergence Protocol; settings: Abutilon theophrasti, pre-emergence, 312 h, evaluated after 13 days; for pest or weed control at 15.625 g/ha: 15.625 g ai/ha; for pest or weed control at 15.625 g/ha / pest or weed control at 250 g/ha: read-out: Velvetleaf damage rating (100=total damage to plant; 0=no damage to plant); for pest or weed control at 62.5 g/ha: 62.5 g ai/ha, 100=total damage to plant, 0=no damage to plant, read-out: plant damage rating, Velvetleaf; for pest or weed control at 250 g/ha: 250 g ai/ha
In short: as §2

corn (Zea mays) [9] = assay: Test G Pre-Emergence Protocol; settings: Zea mays, pre-emergence, 312 h, evaluated after 13 days; for plant injury at 15.625 g/ha: 15.625 g ai/ha; for plant injury at 15.625 g/ha / plant injury at 250 g/ha: read-out: Corn damage rating (100=total damage to plant; 0=no damage to plant); for plant injury at 62.5 g/ha: 62.5 g ai/ha, 100=total damage to plant, 0=no damage to plant, read-out: plant damage rating, Corn; for plant injury at 250 g/ha: 250 g ai/ha
In short: as §2

[10] = tested on: ivy-leaved morning glory (Ipomoea hederacea); assay: Test G Pre-Emergence Protocol; settings: Ipomoea, pre-emergence, 312 h, evaluated after 13 days; for pest or weed control at 15.625 g/ha: 15.625 g ai/ha, read-out: Morning-glory, Ivy-leaved damage rating (100=total damage to plant; 0=no damage to plant); for pest or weed control at 62.5 g/ha: 62.5 g ai/ha, 100=total damage to plant, 0=no damage to plant, read-out: plant damage rating, Morningglory, Ivy-leaved; for pest or weed control at 250 g/ha: 250 g ai/ha, read-out: Morningglory, Ivy-leaved damage rating (100=total damage to plant; 0=no damage to plant)
In short: as §2

[11] = tested on: redroot pigweed (Amaranthus retroflexus); assay: Test G Pre-Emergence Protocol; settings: Amaranthus retroflexus, pre-emergence, 312 h, evaluated after 13 days; for pest or weed control at 15.625 g/ha: 15.625 g ai/ha; for pest or weed control at 15.625 g/ha / pest or weed control at 250 g/ha: read-out: Pigweed, Redroot damage rating (100=total damage to plant; 0=no damage to plant); for pest or weed control at 62.5 g/ha: 62.5 g ai/ha, 100=total damage to plant, 0=no damage to plant, read-out: plant damage rating, Pigweed, Redroot; for pest or weed control at 250 g/ha: 250 g ai/ha
In short: as §2

[12] = tested on: giant foxtail (Setaria faberi); assay: Test G Pre-Emergence Protocol; settings: Setaria faberi, pre-emergence, 312 h, evaluated after 13 days; for pest or weed control at 15.625 g/ha: 15.625 g ai/ha; for pest or weed control at 15.625 g/ha / pest or weed control at 250 g/ha: read-out: Foxtail, Giant damage rating (100=total damage to plant; 0=no damage to plant); for pest or weed control at 62.5 g/ha: 62.5 g ai/ha, 100=total damage to plant, 0=no damage to plant, read-out: plant damage rating, Foxtail, Giant; for pest or weed control at 250 g/ha: 250 g ai/ha
In short: as §2

SMILES	pest or weed control at 15.625 g/ha [1] [%]	pest or weed control at 62.5 g/ha [1] [%]	pest or weed control at 250 g/ha [1] [%]	pest or weed control at 15.625 g/ha [2] [%]	pest or weed control at 62.5 g/ha [2] [%]	pest or weed control at 250 g/ha [2] [%]	plant injury at 15.625 g/ha (corn (Zea mays) [3]) [%]	plant injury at 62.5 g/ha (corn (Zea mays) [3]) [%]	plant injury at 250 g/ha (corn (Zea mays) [3]) [%]	pest or weed control at 15.625 g/ha [4] [%]	pest or weed control at 62.5 g/ha [4] [%]	pest or weed control at 250 g/ha [4] [%]	pest or weed control at 15.625 g/ha [5] [%]	pest or weed control at 62.5 g/ha [5] [%]	pest or weed control at 250 g/ha [5] [%]	pest or weed control at 15.625 g/ha [6] [%]	pest or weed control at 62.5 g/ha [6] [%]	pest or weed control at 250 g/ha [6] [%]	pest or weed control at 15.625 g/ha [7] [%]	pest or weed control at 62.5 g/ha [7] [%]	further results
CN1C[C@@H](c2ccc(C(F)(F)F)cc2)[C@H](C(=O)Nc2ccsc2)C1=O (racemic) [Compound 1611]	0	0	0	0	0	0	0	0	0	0	0	0	0	0	0	0	0	0	0	0	pest or weed control at 250 g/ha [7]: 0%; pest or weed control at 15.625 g/ha [8]: 0%; pest or weed control at 62.5 g/ha [8]: 0%; pest or weed control at 250 g/ha [8]: 0%; plant injury at 15.625 g/ha (corn (Zea mays) [9]): 0%; plant injury at 62.5 g/ha (corn (Zea mays) [9]): 0%; plant injury at 250 g/ha (corn (Zea mays) [9]): 0%; pest or weed control at 15.625 g/ha [10]: 0%; pest or weed control at 62.5 g/ha [10]: 0%; pest or weed control at 250 g/ha [10]: 0%; pest or weed control at 15.625 g/ha [11]: 0%; pest or weed control at 62.5 g/ha [11]: 0%; pest or weed control at 250 g/ha [11]: 0%; pest or weed control at 15.625 g/ha [12]: 0%; pest or weed control at 62.5 g/ha [12]: 0%; pest or weed control at 250 g/ha [12]: 0%
COc1c(Cl)cccc1NC(=O)[C@H]1C(=O)N(C)C[C@@H]1c1ccc(C(F)(F)F)cc1 (racemic) [Compound 1447]	0	0	0	0	0	0	0	10	10	0	0	0	0	0	0	10	20	50	0	0	pest or weed control at 250 g/ha [7]: 10%; pest or weed control at 15.625 g/ha [8]: 0%; pest or weed control at 62.5 g/ha [8]: 0%; pest or weed control at 250 g/ha [8]: 0%; plant injury at 15.625 g/ha (corn (Zea mays) [9]): 0%; plant injury at 62.5 g/ha (corn (Zea mays) [9]): 0%; plant injury at 250 g/ha (corn (Zea mays) [9]): 20%; pest or weed control at 15.625 g/ha [10]: 0%; pest or weed control at 62.5 g/ha [10]: 0%; pest or weed control at 250 g/ha [10]: 0%; pest or weed control at 15.625 g/ha [11]: 0%; pest or weed control at 62.5 g/ha [11]: 0%; pest or weed control at 250 g/ha [11]: 0%; pest or weed control at 15.625 g/ha [12]: 50%; pest or weed control at 62.5 g/ha [12]: 50%; pest or weed control at 250 g/ha [12]: 60%
CN1C[C@H](c2ccc(C(F)(F)F)cc2)[C@@H](C(=O)Nc2ccc(F)c(F)c2)C1=O (racemic) [Compound 1412]	0	50	60	0	40	40	20	10	10	0	0	20	30	40	40	0	60	70	0	30	pest or weed control at 250 g/ha [7]: 60%; pest or weed control at 15.625 g/ha [8]: 0%; pest or weed control at 62.5 g/ha [8]: 0%; pest or weed control at 250 g/ha [8]: 10%; plant injury at 15.625 g/ha (corn (Zea mays) [9]): 0%; plant injury at 62.5 g/ha (corn (Zea mays) [9]): 10%; plant injury at 250 g/ha (corn (Zea mays) [9]): 10%; pest or weed control at 15.625 g/ha [10]: 0%; pest or weed control at 62.5 g/ha [10]: 0%; pest or weed control at 250 g/ha [10]: 0%; pest or weed control at 15.625 g/ha [11]: 20%; pest or weed control at 62.5 g/ha [11]: 20%; pest or weed control at 250 g/ha [11]: 10%; pest or weed control at 15.625 g/ha [12]: 10%; pest or weed control at 62.5 g/ha [12]: 50%; pest or weed control at 250 g/ha [12]: 80%
